Test results as given in patent US10239843B2 (CANCER RESEARCH TECHNOLOGY LIMITED, priority 2014, dated 2019).

target: Human Full Length PARG (Homo sapiens (Human), UniProt Q86W56); assay: PARG enzyme assay (TR-FRET); format: biochemical; conditions: read-out: PARG Biochem IC50
Sequence (Q86W56 whole entry): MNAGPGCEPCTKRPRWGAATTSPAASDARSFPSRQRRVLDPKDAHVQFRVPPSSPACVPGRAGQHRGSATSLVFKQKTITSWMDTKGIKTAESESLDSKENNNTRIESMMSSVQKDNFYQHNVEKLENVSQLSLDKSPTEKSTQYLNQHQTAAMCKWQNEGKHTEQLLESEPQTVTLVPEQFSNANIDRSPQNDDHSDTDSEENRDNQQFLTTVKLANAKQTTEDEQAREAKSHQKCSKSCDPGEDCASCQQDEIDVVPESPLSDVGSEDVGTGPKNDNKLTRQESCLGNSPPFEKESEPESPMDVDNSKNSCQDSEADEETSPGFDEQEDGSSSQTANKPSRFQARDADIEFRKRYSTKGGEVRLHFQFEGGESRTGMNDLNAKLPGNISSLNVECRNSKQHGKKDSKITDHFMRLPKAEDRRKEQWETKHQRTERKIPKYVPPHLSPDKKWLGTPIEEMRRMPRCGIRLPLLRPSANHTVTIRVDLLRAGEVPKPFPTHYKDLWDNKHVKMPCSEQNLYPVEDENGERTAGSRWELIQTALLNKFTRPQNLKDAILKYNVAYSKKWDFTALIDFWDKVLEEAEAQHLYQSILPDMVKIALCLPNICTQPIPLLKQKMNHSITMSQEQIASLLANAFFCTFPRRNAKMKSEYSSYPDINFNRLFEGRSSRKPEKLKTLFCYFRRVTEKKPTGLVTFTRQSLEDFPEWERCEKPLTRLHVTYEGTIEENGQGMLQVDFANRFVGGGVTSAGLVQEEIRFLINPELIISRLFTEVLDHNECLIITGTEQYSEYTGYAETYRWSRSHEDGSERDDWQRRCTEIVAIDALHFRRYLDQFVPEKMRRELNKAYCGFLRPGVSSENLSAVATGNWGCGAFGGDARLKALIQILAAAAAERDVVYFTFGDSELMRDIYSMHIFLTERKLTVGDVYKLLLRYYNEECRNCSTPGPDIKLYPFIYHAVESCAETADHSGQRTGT

Row | Structure (SMILES) | IC50 [nM]
1 | Cn1c(=O)[nH]c(=O)c2cc(S(=O)(=O)NC3(CF)CC3)ccc21 [Example 512, N-[1-(Fluoromethyl)cyclopropyl]-1-methyl-2,4-dioxo-quinazoline-6-sulfonamide] | 2950
2 | CC1(NS(=O)(=O)c2cc3c4c(cccc4c2)C(=O)NC3=O)CC1 [Example 447, N-(1-Methylcyclopropyl)-1,3-dioxo-benzo[de]isoquinoline-5-sulfonamide] | 3470

Second part, the molecule after the results:

Row | IC50 [nM] | Structure (SMILES)
3 | 348 | Cc1cc(Cn2c(=O)c3cc(S(=O)(=O)NC4(C)CC4)ccc3n(CC(C)(C)F)c2=O)on1 [Example 453, 1-(2-Fluoro-2-methyl-propyl)-N-(1-methylcyclopropyl)-3-[(3-methylisoxazol-5-yl)methyl]-2,4-dioxo-quinazoline-6-sulfonamide]
4 | 578 | Cn1c(=O)n(Cc2cncs2)c(=O)c2cc(S(=O)(=O)NC3(CF)CC3)ccc21 [Example 534, N-[1-(Fluoromethyl)cyclopropyl]-1-methyl-2,4-dioxo-3-(thiazol-5-ylmethyl)quinazoline-6-sulfonamide]
5 | 3920 | Cn1c(=O)n(CCc2ccccn2)c(=O)c2cc(S(=O)(=O)NC3(C)CC3)ccc21 [Example 498, 1-Methyl-N-(1-methylcyclopropyl)-2,4-dioxo-3-[2-(2-pyridyl)ethyl]quinazoline-6-sulfonamide]
6 | 2770 | Cn1nnnc1Cn1c(=O)c2cc(S(=O)(=O)NC3(C)CC3)ccc2n(C)c1=O [Example 508, 1-Methyl-N-(1-methylcyclopropyl)-3-[(1-methyltetrazol-5-yl)methyl]-2,4-dioxo-quinazoline-6-sulfonamide]
7 | 7220 | CC(C)c1nnsc1Cn1c(=O)c2cc(S(=O)(=O)NC3(C)CC3)ccc2n(C)c1=O [Example 509, 3-[(4-Isopropylthiadiazol-5-yl)methyl]-1-methyl-N-(1-methylcyclopropyl)-2,4-dioxo-quinazoline-6-sulfonamide]

same assay, conditions: read-out: PARG Biochem IC50 Geomean

Row | Structure (SMILES) | IC50 [nM]
8 | Cc1cc(Cn2nc(C(=O)O)c3ccc(S(=O)(=O)NC4(C)CC4)cc3c2=O)on1 [Example 302, 6-(N-(1-Methylcyclopropyl)sulfamoyl)-3-((3-methylisoxazol-5-yl)methyl)-4-oxo-3,4-dihydrophthalazine-1-carboxylic acid] | 6720
9 | CCn1c(=O)c2cc(S(=O)(=O)NC3(C#N)CC3)ccc2n(CC)c1=O [Example 5] | 1820
10 | Cc1cc(Cn2cc(CCCN(C)C)c3ccc(S(=O)(=O)NC4(C)CC4)cc3c2=O)on1 [Example 287, 4-[3-(dimethylamino)propyl]-N-(1-methylcyclopropyl)-2-[(3-methylisoxazol-5-yl)methyl]-1-oxo-isoquinoline-7-sulfonamide] | 1070
11 | Cc1nc(C)c(Cn2c(=O)n(C)c(=O)c3cc(S(=O)(=O)NC(C)(C)C)ccc32)s1 [Example 202] | 1390
12 | Cn1c(=O)c(=O)[nH]c2ccc(S(=O)(=O)NC3(C)CC3)cc21 [Example 21, 4-Methyl-N-(1-methylcyclopropyl)-2,3-dioxo-1H-quinoxaline-6-sulfonamide] | 6930
13 | Cc1cc(Cn2nc(C#CCN(C)C)c3ccc(S(=O)(=O)NC4(C)CC4)cc3c2=O)on1 [Example 283, 1-[3-(dimethylamino)prop-1-ynyl]-N-(1-methylcyclopropyl)-3-[(3-methylisoxazol-5-yl)methyl]-4-oxo-phthalazine-6-sulfonamide] | 512
14 | CN1CCCC(Cn2c(=O)n(Cc3cnn(C)c3)c(=O)c3cc(S(=O)(=O)NC4(C)CC4)ccc32)C1 (centres unmarked) [Example 236] | 6740
15 | CC1(NS(=O)(=O)c2ccc3c(c2)[nH]c(=O)c(=O)n3Cc2ccc(F)cc2)CC1 [Example 128, 1-[(4-Fluorophenyl)methyl]-N-(1-methylcyclopropyl)-2,3-dioxo-4H-quinoxaline-6-sulfonamide] | 5100
16 | CCOc1nn(Cc2cc(C)no2)c(=O)c2cc(S(=O)(=O)NC3(C)CC3)ccc12 [Example 316, 1-Ethoxy-N-(1-methylcyclopropyl)-3-[(3-methylisoxazol-5-yl)methyl]-4-oxo-phthalazine-6-sulfonamide] | 737
17 | Cc1cc(Cn2cc(C#CCN(C)C)c3ccc(S(=O)(=O)NC4(C)CC4)cc3c2=O)on1 [Example 286, 4-[3-(Dimethylamino)prop-1-ynyl]-N-(1-methylcyclopropyl)-2-[(3-methylisoxazol-5-yl)methyl]-1-oxo-isoquinoline-7-sulfonamide] | 842
18 | Cc1cc(Cn2c(=O)c3cc(S(=O)(=O)NC4(C)CC4)ccc3n(CCN3CCN(C)CC3)c2=O)on1 [Example 341] | 511
19 | Cc1cc(Cn2nc(CC3CCC3)c3ccc(S(=O)(=O)NC4(C)CC4)cc3c2=O)on1 [Example 320] | 674
20 | COC(=O)c1nn(Cc2cc(C)no2)c(=O)c2cc(S(=O)(=O)NC3(C)CC3)ccc12 [Example 301] | 836
21 | Cn1c(=O)c2cc(S(=O)(=O)NC3(C)CC3)c(F)cc2n(C)c1=O [Example 224] | 1440
22 | Cn1cc(Cn2c(=O)c3cc(S(=O)(=O)NC4(C)CC4)ccc3n(CCN3CCCC3=O)c2=O)cn1 [Example 334] | 4220
23 | Cc1cc(Cn2cc(Cl)c3ccc(S(=O)(=O)NC4(C)CC4)cc3c2=O)on1 [Example 209, 4-Chloro-N-(1-methylcyclopropyl)-2-[(3-methylisoxazol-5-yl)methyl]-1-oxo-isoquinoline-7-sulfonamide] | 1640
24 | Cc1cc(Cn2nc(OC3CCC3)c3ccc(S(=O)(=O)NC4(C)CC4)cc3c2=O)on1 [Example 319] | 859
25 | CNC(=O)c1nn(Cc2cc(C)no2)c(=O)c2cc(S(=O)(=O)NC3(C)CC3)ccc12 [Example 303] | 800
26 | Cc1cc(Cn2ncc3ccc(S(=O)(=O)NC4(C)CC4)cc3c2=O)on1 [Example 299, N-(1-Methylcyclopropyl)-3-[(3-methylisoxazol-5-yl)methyl]-4-oxo-phthalazine-6-sulfonamide] | 1270
27 | Cc1cc(Cn2ccc3ccc(S(=O)(=O)NC4(C)CC4)cc3c2=O)on1 [Example 242, N-(1-Methylcyclopropyl)-2-[(3-methylisoxazol-5-yl)methyl]-1-oxo-isoquinoline-7-sulfonamide] | 7350

Next, values leading:

Row | IC50 [nM] | Structure (SMILES)
28 | 2420 | Cn1c(=O)c2cc(S(=O)(=O)NC3(C)CC3)ccc2n(CC2CCCO2)c1=O (centres unmarked) [Example 49]
29 | 7350 | Cn1ccnc1Cn1c(=O)c2cc(S(=O)(=O)NC3(C)CC3)ccc2n(C)c1=O [Example 113]
30 | 1270 | Cn1c(=O)c2cc(S(=O)(=O)NC3(C)CC3)ccc2n(Cc2ccccc2Cl)c1=O [Example 62]
31 | 3180 | Cc1noc(Cn2c(=O)c3cc(S(=O)(=O)NC4(C)CC4)ccc3n(C)c2=O)n1 [Example 190]
32 | 671 | Cn1c(=O)c2cc(S(=O)(=O)NC3(C)CC3)ccc2n(Cc2nccs2)c1=O [Example 146]
33 | 4780 | Cc1csc(Cn2c(=O)c3cc(S(=O)(=O)NC4(C)CC4)ccc3n(C)c2=O)n1 [Example 150]
34 | 2250 | Cn1c(=O)n(CC(=O)Nc2ccccc2)c(=O)c2cc(S(=O)(=O)NC3(C)CC3)ccc21 [Example 85]
35 | 2480 | CN(C)CCn1cc(Cn2c(=O)c3cc(S(=O)(=O)NC4(C)CC4)ccc3n(C)c2=O)cn1 [Example 219]
36 | 7980 | Cn1c(=O)n(Cc2ccncc2)c(=O)c2cc(S(=O)(=O)NC3(C)CC3)ccc21 [Example 53]
37 | 1330 | Cc1nc(C)c(Cn2c(=O)c3cc(S(=O)(=O)NC4(C)CC4)ccc3n(C)c2=O)o1 [Example 189]
38 | 1480 | Cn1c(=O)c2cc(S(=O)(=O)NC3(C)CC3)ccc2n(CC2CCOC2)c1=O (centres unmarked) [Example 37]
39 | 1230 | Cn1nccc1Cn1c(=O)n(C)c(=O)c2cc(S(=O)(=O)NC3(C)CC3)ccc21 [Example 125]
40 | 642 | Cc1cc(Cn2c(=O)n(C3CC3)c(=O)c3cc(S(=O)(=O)NC4(C)CC4)ccc32)n(C)n1 [Example 241]
41 | 907 | Cc1nc(C)c(Cn2c(=O)c3cc(S(=O)(=O)NC4(C)CC4)ccc3n(C)c2=O)s1 [Example 142]
42 | 1280 | Cn1c(=O)c2cc(S(=O)(=O)NC3(C)CC3)ccc2n(Cc2ccc(C#N)c(F)c2)c1=O [Example 100]
43 | 635 | Cn1c(=O)n(Cc2cnn(CC(N)=O)c2)c(=O)c2cc(S(=O)(=O)NC3(C)CC3)ccc21 [Example 203]
44 | 3790 | Cc1cc(Cn2c(=O)c3cc(S(=O)(=O)NC4CC4)ccc3n(C)c2=O)on1 [Example 260]
45 | 4960 | Cn1c(=O)c2cc(S(=O)(=O)NC3(C#N)CC3)ccc2n(C)c1=O [Example 3]
46 | 4650 | Cn1c(=O)n(CC2CC2)c(=O)c2cc(S(=O)(=O)NC3(C)CC3)ccc21 [Example 20]
47 | 1510 | Cn1c(=O)n(CC(=O)c2ccc(N3CCCC3)cc2)c(=O)c2cc(S(=O)(=O)NC3(C)CC3)ccc21 [Example 114]
48 | 1840 | Cc1ncoc1Cn1c(=O)c2cc(S(=O)(=O)NC3(C)CC3)ccc2n(C)c1=O [Example 188]
49 | 1680 | Cc1cc(C)cc(Cn2c(=O)n(C)c(=O)c3cc(S(=O)(=O)NC4(C)CC4)ccc32)c1 [Example 77]
50 | 2390 | Cn1c(=O)c2cc(S(=O)(=O)NC3(C)CC3)ccc2n(Cc2ccccc2C(F)(F)F)c1=O [Example 71]
51 | 1600 | Cn1c(=O)n(Cc2cnc(Cl)s2)c(=O)c2cc(S(=O)(=O)NC3(C)CC3)ccc21 [Example 144]
52 | 750 | Cn1ccnc1Cn1c(=O)n(C)c(=O)c2cc(S(=O)(=O)NC3(C)CC3)ccc21 [Example 48]
53 | 2100 | Cn1c(=O)c2cc(S(=O)(=O)NC3(C)CC3)ccc2n(Cc2c(Cl)cccc2Cl)c1=O [Example 74]
